Counter-ions that a name gives are not always drawn. Like-named read-outs stand apart in the source and are kept apart here.
Experiments:
Anorectic effect in rats = assay type: in vivo, rat (Sprague-Dawley); conditions: Rattus norvegicus, oral gavage, 50% inhibition of food intake
Method: (b) Anorectic effect in rats
Sprague-Dawley (SD) rats, male and aged seven weeks, fasted for 24 hours (in groups of six individuals) were dosed, by oral gavage, with a solution of each test compound in 5% gum arabic, and feeding (CE-2 powder) was started at 0.5 hour after administration. The dose (ED50) which caused a 50% inhibition of food intake as compared with the control dosed with 5% gum arabic was determined.

[1] = tested on: biosynthesis of fatty acid; assay: Suppression of biosynthesis of fatty acid (incorporation of glucose-U-14C into liver and epididymal adipose tissue lipids); assay type: in vivo, rat (SD); conditions: Rattus norvegicus, 1 h, oral, 50% inhibition of glucose-U-14C incorporation, 60 minutes after glucose
Method: (c) Suppression of biosynthesis of fatty acid
Male SD rats fasted for 24 hours, were orally dosed with erythro-(I) hydrochloride and after a lapse of 30 minutes, glucose-U-^14 C (140 μCi/2 g/kg) was orally administered. The animals were sacrificed after 60 minutes and the amounts of incorporation of glucose-U-^14 C into the liver and the epididymal adipose tissue lipids were determined to calculate the dose (ED50) which caused a 50% inhibition of glucose-U-^14 C incorporation, as compared to control rats, which had fasted, had not been so dosed, and had been orally administered with glucose-U-^14 C (140μCi/2 g/kg).

[2] = Estimation of LD50 in mice; parameters: species or system mouse (ICR); conditions: mouse, in vivo; oral; kept for seven days; Probit analysis
Method: (e) Estimation of LD50 in mice
ICR mice, male and aged nine weeks, were used without fasting. The mice (in groups of six individuals) were orally dosed with a solution of erythro-(I) hydrochloride (333, 500 and 750 mg/kg) or erythro-(VIII) hydrochloride (750, 1100 and 1700 mg/kg) in 5% gum arabic and kept for seven days. LD50 was calculated using the Probit analysis.

Anorectic effect in mice = assay type: in vivo, mouse (ICR); conditions: 50 mg/kg oral gavage, control = 100
Method: (a) Anorectic effect in mice
ICR mice, male and aged seven weeks (in groups of six individuals), which had been acclimatized to 6-hour/day feeding (CE-2 powder, commercial product of Clea Japan Ltd., Tokyo, Japan) for seven days were administered a dosage, by oral gavage, with a solution of 50 mg/kg of each test compound in 5% gum arabic at 0.5 hour before feeding on the eighth day, and the food intakes were compared with those of control mice given 5% gum arabic only. Each figure in the table is the percent food intake, with the corresponding figure for the control being 100.

insulin secretion = assay: Suppression of insulin secretion (insulin area after glucose loading); assay type: in vivo, rat (Fatty rats); conditions: 50 mg/kg oral; glucose 3 g/kg after 30 minutes; blood at 30, 60 and 120 minutes; control 739
Method: (d) Suppression of insulin secretion
Fatty rats, female and aged 14 weeks, were used after fasting for 24 hours. The rats (in groups of five individuals) were orally dosed with a solution of 50 mg/kg of erythro-(I) hydrochloride in 5% gum arabic and, after 30 minutes, glucose (3 g/kg) was orally administered. At 30, 60 and 120 minutes after glucose loading, blood was withdrawn. The plasma samples were assayed for insulin and the insulin area was calculated.

[3] = in vivo
[4] = Toxicity (general statement); conditions: in vivo
[5] = Antiobesity action (general statement); assay type: in vivo; conditions: compared with (VII)
[6] = 0.5 hour, read-out: ED50 0.5 hour after administration
[7] = 1 hour, read-out: ED50 1 hour after administration
[8] = 2 hours, read-out: ED50 2 hours after administration

Compound | ED50 (Anorectic effect in rats; [6]) | ED50 (Anorectic effect in rats; [7]) | ED50 (Anorectic effect in rats; [8]) | ED50 ([1]; epididymal adipose tissue lipids, read-out: Epididymal adipose tissue: ED50) | ED50 ([1]; liver lipids, read-out: Liver: ED50) | LD50 at 168 h [2] | Food intake (%) 0.5 hour after administration (Anorectic effect in mice) | Food intake (%) 1 hour after administration (Anorectic effect in mice) | Food intake (%) 2 hours after administration (Anorectic effect in mice) | Insulin area (insulin secretion) | absorbability on oral administration [3] | toxicity [4] | antiobesity action [5]
O[C@@H](c1cccc(C(F)(F)F)c1)[C@H]1CCN1 (relative stereo) [Erythro-(I) hydrochloride, erythro-2-(α-hydroxy-m-trifluoromethylbenzyl)azetidine hydrochloride] | 20 mg/kg | 20 mg/kg | 25 mg/kg | 20 mg/kg | 20 mg/kg | 499 mg/kg | 44.0% | 50.6% | 67.0% | 51 μU/ml.hr |  |  | 
O[C@@H](c1ccccc1)[C@H]1CCN1 (relative stereo) [Erythro-(VII) hydrochloride, 2-(α-hydroxybenzyl)azetidine, reference compound] | 35 mg/kg | 50 mg/kg | 300 mg/kg |  |  | 902 mg/kg |  |  |  |  |  |  | 
O[C@@H](c1cccc(C(F)(F)F)c1)[C@@H]1CCN1 (relative stereo) [Threo-(I) hydrochloride, Threo-2-(α-hydroxy-m-trifluoromethylbenzyl)azetidine hydrochloride] |  |  |  |  |  |  | 55.0% | 72.0% | 84.8% |  |  |  | 
O[C@@H](c1ccccc1)[C@@H]1CCN1 (relative stereo) [Threo-(VII) hydrochloride, 2-(α-hydroxybenzyl)azetidine, reference compound] |  |  |  |  |  |  | 70.0% | 89.3% | 98.3% |  |  |  | 
OC(c1cccc(C(F)(F)F)c1)C1CCN1 (stereo not drawn) [Compound (I), 2-(α-hydroxy-m-trifluoromethylbenzyl)azetidine] |  |  |  |  |  |  |  |  |  |  | good absorbability on oral administration | low toxicity | very potent and long lasting antiobesity action, surpassing the action of (VII)
